# How the values were obtained:
# corn = assay: Test B pre/postemergence corn; format: in vivo, Zea mays
# Outline: (§1)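 Test chemicals in a non-phytotoxic solvent mixture with surfactant were sprayed preemergence onto planted seeds and postemergence onto plants 2 to 18 cm tall (1- to 4-leaf stage). After twelve to sixteen days in a greenhouse, injury was visually rated against untreated controls from 0 (no effect) to 10 (complete control).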
# duck salad = assay: Test B flood test duck salad; format: in vivo, Heteranthera limosa
# Outline: (§2)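 Each value is a visual injury score relative to controls, with 10 meaning complete control and 0 no effect. Evaluation took place twelve to sixteen days after the 2-leaf-stage plants were treated and kept in the greenhouse.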
# morningglory = assay: Test B pre/postemergence morningglory; format: in vivo, Ipomoea hederacea
# Outline: as §1
# velvetleaf = assay: Test B pre/postemergence velvetleaf; format: in vivo, Abutilon theophrasti
# Outline: as §1
# blackgrass = assay: Test B pre/postemergence blackgrass; format: in vivo, Alopecurus myosuroides; settings: for Plant response rating, Blackgrass: scale of 0 to 10 where 0 is no effect and 10 is complete control
# Outline: as §1
# pigweed = assay: Test B pre/postemergence pigweed; format: in vivo, Amaranthus retroflexus
# Outline: as §1
# crabgrass = assay: Test B pre/postemergence crabgrass; format: in vivo, Digitaria sanguinalis
# Outline: as §1
# purple nutsedge = assay: Test B pre/postemergence purple nutsedge; format: in vivo, Cyperus rotundus
# Outline: as §1
# cocklebur = assay: Test B pre/postemergence cocklebur; format: in vivo, Xanthium strumarium
# Outline: as §1
# rape = assay: Test B pre/postemergence rape; format: in vivo, Brassica napus
# Outline: as §1
# rice = assay: Test B flood test rice; format: in vivo, Oryza sativa
# Outline: as §2
# smallflower flatsedge = assay: Test B flood test smallflower flatsedge; format: in vivo, Cyperus difformis
# Outline: as §2
# giant foxtail = assay: Test B pre/postemergence giant foxtail; format: in vivo, Setaria faberii
# Outline: as §1
# surinam grass = assay: Test B pre/postemergence surinam grass; format: in vivo, Brachiaria decumbens
# Outline: as §1
# wheat = assay: Test B pre/postemergence wheat; format: in vivo, Triticum aestivum
# Outline: as §1
# sugar beet = assay: Test B pre/postemergence sugar beet; format: in vivo, Beta vulgaris
# Outline: as §1
# [1] = Postemergence, Rate 250 g/ha, scale 0 to 10
# [2] = Postemergence, Rate 500 g/ha, scale of 0 to 10 where 0 is no effect and 10 is complete control
# [3] = Preemergence, Rate 62 g/ha, scale of 0 to 10 where 0 is no effect and 10 is complete control
# [4] = Preemergence, Rate 125 g/ha, scale of 0 to 10 where 0 is no effect and 10 is complete control
# [5] = Preemergence, Rate 250 g/ha, scale 0 to 10, 0 is no effect, 10 is complete control
# [6] = Preemergence, Rate 500 g/ha, scale 0 to 10, 0 is no effect, 10 is complete control
# [7] = Rate 62 g/ha, Postemergence, scale 0 to 10 (0 no effect, 10 complete control)
# [8] = Rate 125 g/ha, Postemergence, scale 0 to 10, 0 is no effect, 10 is complete control
# [9] = Rate 62 g/ha, flood test species, Pre-emergence, visual evaluation after twelve to sixteen days
# [10] = Rate 125 g/ha, under heading Pre-emergence, flood test species, visual evaluation after twelve to sixteen days
# [11] = Rate 250 g/ha, Pre-emergence (flood test species), scale 0 to 10, 0 is no effect, 10 is complete control
# [12] = Rate 500 g/ha, Pre-emergence, flood test species, scale 0 to 10 (0 no effect, 10 complete control)
smiles,measurement,setting,value
CCc1nc(C)c(C(C)n2c(=O)on(C(=O)N(c3ccc(F)cc3)C(C)C)c2=O)s1 (stereo not drawn) [Compound 449],Corn plant response rating,corn; [1],0
same,Corn plant response rating,corn; [2],0
same,"Plant response rating, Corn",corn; [3],0
same,"Plant response rating, Corn",corn; [4],0
same,Corn plant response rating,corn; [5],0
same,Corn plant response rating,corn; [6],0
same,Corn plant response rating,corn; [7],0
same,Corn plant response rating,corn; [8],0
same,"Plant response rating, Ducksalad (0 to 10 scale, 0 is no effect, 10 is complete control)",duck salad; [9],0
same,"Ducksalad plant response rating (0 to 10 scale, 0 is no effect, 10 is complete control)",duck salad; [10],0
same,Ducksalad plant response rating,duck salad; [11],0
same,Ducksalad plant response rating,duck salad; [12],0
same,Morningglory plant response rating,morningglory; [1],5
same,Morningglory plant response rating,morningglory; [2],5
same,"Plant response rating, Morningglory",morningglory; [3],0
same,"Plant response rating, Morningglory",morningglory; [4],0
same,Morningglory plant response rating,morningglory; [5],0
same,Morningglory plant response rating,morningglory; [6],0
same,Morningglory plant response rating,morningglory; [7],2
same,Morningglory plant response rating,morningglory; [8],5
same,Velvetleaf plant response rating,velvetleaf; [1],0
same,Velvetleaf plant response rating,velvetleaf; [2],0
same,"Plant response rating, Velvetleaf",velvetleaf; [3],0
same,"Plant response rating, Velvetleaf",velvetleaf; [4],0
same,Velvetleaf plant response rating,velvetleaf; [5],0
same,Velvetleaf plant response rating,velvetleaf; [6],0
same,Velvetleaf plant response rating,velvetleaf; [7],0
same,Velvetleaf plant response rating,velvetleaf; [8],0
same,Blackgrass plant response rating,blackgrass; [1],0
same,"Plant response rating, Blackgrass","blackgrass; Preemergence, Rate 62 g/ha",0
same,"Plant response rating, Blackgrass","blackgrass; Preemergence, Rate 125 g/ha",0
same,Blackgrass plant response rating,blackgrass; [5],0
same,Blackgrass plant response rating,blackgrass; [6],3
same,Blackgrass plant response rating,blackgrass; [7],0
same,Blackgrass plant response rating,blackgrass; [8],0
same,Redroot pigweed plant response rating,pigweed; [1],2
same,Redroot pigweed plant response rating,pigweed; [2],4
same,"Plant response rating, Redroot pigweed",pigweed; [3],0
same,"Plant response rating, Redroot pigweed",pigweed; [4],0
same,Redroot pigweed plant response rating,pigweed; [5],0
same,Redroot pigweed plant response rating,pigweed; [6],3
same,Redroot pigweed plant response rating,pigweed; [7],0
same,Redroot pigweed plant response rating,pigweed; [8],0
same,Crabgrass plant response rating,crabgrass; [1],2
same,Crabgrass plant response rating,crabgrass; [2],2
same,"Plant response rating, Crabgrass",crabgrass; [3],0
same,"Plant response rating, Crabgrass",crabgrass; [4],3
same,Crabgrass plant response rating,crabgrass; [5],9
same,Crabgrass plant response rating,crabgrass; [6],9
same,Crabgrass plant response rating,crabgrass; [7],0
same,Nutsedge plant response rating,purple nutsedge; [1],0
same,Nutsedge plant response rating,purple nutsedge; [2],0
same,"Plant response rating, Nutsedge",purple nutsedge; [3],0
same,"Plant response rating, Nutsedge",purple nutsedge; [4],0
same,Nutsedge plant response rating,purple nutsedge; [5],0
same,Nutsedge plant response rating,purple nutsedge; [6],0
same,Nutsedge plant response rating,purple nutsedge; [7],0
same,Nutsedge plant response rating,purple nutsedge; [8],0
same,Cocklebur plant response rating,cocklebur; [1],2
same,Cocklebur plant response rating,cocklebur; [2],3
same,"Plant response rating, Cocklebur",cocklebur; [3],0
same,"Plant response rating, Cocklebur",cocklebur; [4],0
same,Cocklebur plant response rating,cocklebur; [5],0
same,Cocklebur plant response rating,cocklebur; [6],0
same,Cocklebur plant response rating,cocklebur; [7],0
same,Cocklebur plant response rating,cocklebur; [8],0
same,Rape plant response rating,rape; [1],0
same,Rape plant response rating,rape; [2],3
same,"Plant response rating, Rape",rape; [3],0
same,"Plant response rating, Rape",rape; [4],0
same,Rape plant response rating,rape; [5],0
same,Rape plant response rating,rape; [6],0
same,Rape plant response rating,rape; [7],0
same,Rape plant response rating,rape; [8],0
same,"Plant response rating, Rice (0 to 10 scale, 0 is no effect, 10 is complete control)",rice; [9],0
same,"Rice plant response rating (0 to 10 scale, 0 is no effect, 10 is complete control)",rice; [10],0
same,Rice plant response rating,rice; [11],0
same,Rice plant response rating,rice; [12],0
same,"Plant response rating, S. Flatsedge (0 to 10 scale, 0 is no effect, 10 is complete control)",smallflower flatsedge; [9],0
same,"S. Flatsedge plant response rating (0 to 10 scale, 0 is no effect, 10 is complete control)",smallflower flatsedge; [10],0
same,S. Flatsedge plant response rating,smallflower flatsedge; [11],0
same,S. Flatsedge plant response rating,smallflower flatsedge; [12],0
same,Giant foxtail plant response rating,giant foxtail; [1],0
same,Giant foxtail plant response rating,giant foxtail; [2],3
same,"Plant response rating, Giant foxtail",giant foxtail; [3],2
same,"Plant response rating, Giant foxtail",giant foxtail; [4],6
same,Giant foxtail plant response rating,giant foxtail; [5],8
same,Giant foxtail plant response rating,giant foxtail; [6],10
same,Giant foxtail plant response rating,giant foxtail; [7],0
same,Giant foxtail plant response rating,giant foxtail; [8],0
same,B. signalgrass plant response rating,"surinam grass; Postemergence, Rate 250 g/ha, scale 0 to 10, 0 no effect, 10 complete control",0
same,B. signalgrass plant response rating,surinam grass; [2],4
same,"Plant response rating, B. signalgrass",surinam grass; [3],0
same,"Plant response rating, B. signalgrass",surinam grass; [4],0
same,B. signalgrass plant response rating,surinam grass; [5],0
same,B. signalgrass plant response rating,surinam grass; [6],0
same,B. signalgrass plant response rating,surinam grass; [7],0
same,B. signalgrass plant response rating,surinam grass; [8],0
same,Wheat plant response rating,wheat; [1],0
same,Wheat plant response rating,wheat; [2],3
same,"Plant response rating, Wheat",wheat; [3],0
same,"Plant response rating, Wheat",wheat; [4],0
same,Wheat plant response rating,wheat; [5],0
same,Wheat plant response rating,wheat; [6],0
same,Wheat plant response rating,wheat; [7],0
same,Wheat plant response rating,wheat; [8],0
same,Sugarbeets plant response rating,sugar beet; [1],0
same,Sugarbeets plant response rating,sugar beet; [2],3
same,"Plant response rating, Sugarbeets",sugar beet; [3],0
same,"Plant response rating, Sugarbeets",sugar beet; [4],0
same,Sugarbeets plant response rating,sugar beet; [5],0
same,Sugarbeets plant response rating,sugar beet; [6],0
same,Sugarbeets plant response rating,sugar beet; [7],0
same,Sugarbeets plant response rating,sugar beet; [8],0

# From patent US6737383B1, “Herbicidal oxadiazolidines” (priority 1999, dated 2004)
